# Results taken from patent US20250230193A1, “CYCLIC COMPOUND HAVING SELECTIVE KRAS INHIBITORY EFFECT ON HRAS AND NRAS” (CHUGAI SEIYAKU KABUSHIKI KAISHA, priority 2022, published 2025).
# *1 amine or outer side, *2 acyl side, *3 side chain or, on linkers, in order; H or OH if unused. Where a SMILES comes first, the peptide text is derived from it. Bridges are numbered along the chain shown (N, C = ends). [ ]: non-standard residue; d: D form. The star is where a group is joined. hPhe(3,5-F2-4-CF3) = N[C@@H](CCc1cc(F)c(C(F)(F)F)c(F)c1)C(=O)O; hPhe(3-Cl-4-CF3) = N[C@@H](CCc1ccc(C(F)(F)F)c(Cl)c1)C(=O)O; NPrPhe(4-CF3) = CCCN[C@@H](Cc1ccc(C(F)(F)F)cc1)C(=O)O; X30 = CCN([C@H](C(=O)[*:2])C1CCCC1)[*:1]; NMeGly(cPent) = CN[C@H](C(=O)O)C1CCCC1; NMeD = CN[C@@H](CC(=O)O)C(=O)O; NMeL = CN[C@@H](CC(C)C)C(=O)O; αMeL = CC(C)C[C@](C)(N)C(=O)O; Morpholide = C1CN(*)CCO1; NMeA = CN[C@@H](C)C(=O)O; Pyrrolidide = C1CCN(*)C1; Ac5c = NC1(C(=O)O)CCCC1; Aze = O=C(O)[C@@H]1CCN1; Sar = CNCC(=O)O
# Columns and labels:
# [1] = molecular target: GDP-bound NRAS wild-type protein (Homo sapiens, UniProt P01111); assay: Binding to NRAS by surface plasmon resonance (SPR), Single Cycle Kinetics
# Sequence of GDP-bound NRAS wild-type protein (P01111 whole entry): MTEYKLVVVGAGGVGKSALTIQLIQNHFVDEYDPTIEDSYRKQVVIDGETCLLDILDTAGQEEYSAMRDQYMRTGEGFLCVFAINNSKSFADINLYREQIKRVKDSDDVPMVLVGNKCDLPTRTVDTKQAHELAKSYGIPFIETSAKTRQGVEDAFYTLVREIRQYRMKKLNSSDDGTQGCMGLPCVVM
# [2] = molecular target: GDP-bound HRAS wild-type protein (Homo sapiens, UniProt P01112); assay: Binding to HRAS by surface plasmon resonance (SPR), Single Cycle Kinetics
# Sequence of GDP-bound HRAS wild-type protein (P01112 whole entry): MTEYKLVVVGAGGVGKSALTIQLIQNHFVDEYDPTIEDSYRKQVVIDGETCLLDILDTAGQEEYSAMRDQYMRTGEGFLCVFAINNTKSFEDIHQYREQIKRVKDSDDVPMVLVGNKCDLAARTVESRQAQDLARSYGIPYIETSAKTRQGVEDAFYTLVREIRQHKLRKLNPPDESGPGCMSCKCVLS
# [3] = SPR, GDP-bound wild-type proteins
smiles,measurement,setting,value
CCCN1C(=O)[C@@H]2CCN2C(=O)[C@H](C)N(C)C(=O)[C@H]([C@@H](C)CC)NC(=O)[C@H](CC(C)C)N(C)C(=O)C[C@@H](C(=O)N2CCCC2)N(C)C(=O)[C@H](C2CCCC2)N(C)C(=O)C2(CCCC2)NC(=O)[C@@H]2CCCN2C(=O)[C@H](CCc2ccc(C(F)(F)F)c(Cl)c2)NC(=O)CN(C)C(=O)[C@@H]1Cc1ccc(C(F)(F)F)cc1 [PP0179] ([NMeL]I[NMeA][Aze][NPrPhe(4-CF3)][Sar][hPhe(3-Cl-4-CF3)]P[Ac5c][NMeGly(cPent)][NMeD]-Pyrrolidide; lactam N-11),NRAS/KRAS (ratio of KD for GDP-bound NRAS wild-type to KD for KRAS),[1]; SPR,C (A compound having a KD ratio of 0.1 or more and less than 3 is denoted as C)
same,HRAS/KRAS (ratio of KD for GDP-bound HRAS wild-type to KD for KRAS),[2]; SPR,B (a compound having 3 or more and less than 10 is denoted as B)
CCCOC[C@H]1C(=O)N[C@@H]([C@@H](C)CC)C(=O)N(C2CC2)CC(=O)N(C)[C@H]2C/C=C\CCN(C2=O)[C@@H](CC2CCC(F)(F)CC2)C(=O)N(C)CC(=O)N[C@@H](CCc2ccc(C(F)(F)F)c(OC)c2)C(=O)N2C[C@H](OCC)C[C@H]2C(=O)N(C)C2(CCC2)C(=O)N(C)[C@@H](C2CCCC2)C(=O)N(C)[C@H](C(=O)N(C)C)CC(=O)N1C [PP2354],NRAS/KRAS (ratio of KD value with respect to NRAS to KD value with respect to KRAS),"[1]; SPR, GDP-bound NRAS wild-type vs GDP-bound KRAS wild-type",A (a compound having 10 or more and less than 20 is denoted as A)
same,HRAS/KRAS (ratio of KD value with respect to HRAS to KD value with respect to KRAS),"[2]; SPR, GDP-bound HRAS wild-type vs GDP-bound KRAS wild-type",A (a compound having 10 or more and less than 20 is denoted as A)
CC[C@H](C)[C@@H]1NC(=O)[C@H](CC(C)C)N(C)C(=O)C[C@@H](C(=O)N2CCOCC2)N(C)C(=O)[C@H](C2CCCC2)N(C)C(=O)C2(CCCC2)NC(=O)[C@@H]2CCCN2C(=O)[C@H](CCc2ccc(C(F)(F)F)c(Cl)c2)NC(=O)CN(C)C(=O)[C@H](C2CCCC2)N(CC)C(=O)[C@@H]2CCN2C(=O)[C@H](C)N(C)C1=O [PP0003] ([NMeL]I[NMeA][Aze][X30][Sar][hPhe(3-Cl-4-CF3)]P[Ac5c][NMeGly(cPent)][NMeD]-Morpholide; lactam N-11),NRAS/KRAS (ratio of KD for GDP-bound NRAS wild-type to KD for KRAS),[1]; SPR,C (A compound having a KD ratio of 0.1 or more and less than 3 is denoted as C)
same,HRAS/KRAS (ratio of KD for GDP-bound HRAS wild-type to KD for KRAS),[2]; SPR,C (A compound having a KD ratio of 0.1 or more and less than 3 is denoted as C)
CCO[C@@H]1C[C@H]2C(=O)NC3(CC(C)(C)C3)C(=O)N(C)[C@@H](C3CCCC3)C(=O)N(C)[C@H](C(=O)N(C)C)CC(=O)N(C)[C@@H](COC)C(=O)N[C@@H]([C@@H](C)CC)C(=O)N(C3CC3)CC(=O)N(C)[C@H]3C/C=C\CCN(C3=O)[C@@H](CC3CCCCC3)C(=O)N(C)CC(=O)N[C@@H](CCc3ccc(Cl)c(Cl)c3)C(=O)N2C1 [PP2563],NRAS/KRAS (ratio of KD value with respect to GDP-bound NRAS wild-type protein to KD value with respect to KRAS),[1]; class symbols,A (a compound having 10 or more and less than 20 is denoted as A)
same,HRAS/KRAS (ratio of KD value with respect to GDP-bound HRAS wild-type protein to KD value with respect to KRAS),[2]; class symbols,A (a compound having 10 or more and less than 20 is denoted as A)
"CCCN1C(=O)CN(C)C(=O)[C@@H]2CCN2C(=O)[C@H]([C@@H](C)CC)NC(=O)[C@H](CC(C)C)N(C)C(=O)C[C@@H](C(=O)N2CCOCC2)N(C)C(=O)[C@H](C2CCCC2)N(C)C(=O)[C@](C)(CC(C)C)NC(=O)[C@@H]2CCCN2C(=O)[C@H](CCc2cc(F)c(C(F)(F)F)c(F)c2)NC(=O)CN(C)C(=O)[C@@H]1Cc1ccc(C(F)(F)F)cc1 [PP0776] ([NMeL]I[Aze][Sar][NPrPhe(4-CF3)][Sar][hPhe(3,5-F2-4-CF3)]P[αMeL][NMeGly(cPent)][NMeD]-Morpholide; lactam N-11)",NRAS/KRAS (ratio of KD value with respect to GDP-bound NRAS wild-type protein to KD value with respect to KRAS),[1]; SPR,B (a compound having 3 or more and less than 10 is denoted as B)
same,HRAS/KRAS (ratio of KD value with respect to GDP-bound HRAS wild-type protein to KD value with respect to KRAS),[2]; SPR,B (a compound having 3 or more and less than 10 is denoted as B)
CCC[C@H]1C(=O)N[C@@H]([C@@H](C)CC)C(=O)N(C2CC2)CC(=O)N(C)[C@H]2C/C=C\CCN(C2=O)[C@@H](Cc2ccc(C(F)(F)F)cc2)C(=O)N(C)CC(=O)N[C@@H](CCc2cc(F)c(C(F)(F)F)c(F)c2)C(=O)N2C[C@H](OCC)C[C@H]2C(=O)N(C)C2(CCC2)C(=O)N(C)[C@@H](C2CCCC2)C(=O)N(C)[C@H](C(=O)N2CCCC2)CC(=O)N1C [PP3112],NRAS/KRAS (ratio of KD value with respect to GDP-bound NRAS wild-type protein to KD value with respect to KRAS),[1]; [3],A (a compound having 10 or more and less than 20 is denoted as A)
same,HRAS/KRAS (ratio of KD value with respect to GDP-bound HRAS wild-type protein to KD value with respect to KRAS),[2]; [3],B (a compound having 3 or more and less than 10 is denoted as B)
CCO[C@@H]1C[C@H]2C(=O)NC3(CC(C)(C)C3)C(=O)N(C)[C@@H](C3CCCC3)C(=O)N(C)[C@H](C(=O)N(C)C)CC(=O)N(C)[C@@H](CC3CCC3)C(=O)N[C@@H]([C@@H](C)CC)C(=O)N(C)CC(=O)N(C)[C@H]3C/C=C\CCN(C3=O)[C@@H](Cc3ccc(C(F)(F)F)cc3)C(=O)N(C)CC(=O)N[C@@H](CCc3ccc(C(F)(F)F)c(Cl)c3)C(=O)N2C1 [PP1752],NRAS/KRAS (ratio of KD value for NRAS to KD value for KRAS),"[1]; KD ratio, GDP-bound NRAS wild-type vs GDP-bound KRAS wild-type, SPR",A (a compound having 10 or more and less than 20 is denoted as A)
same,HRAS/KRAS (ratio of KD value for HRAS to KD value for KRAS),"[2]; KD ratio, GDP-bound HRAS wild-type vs GDP-bound KRAS wild-type, SPR",A (a compound having 10 or more and less than 20 is denoted as A)
